Each compound was assayed against hepatitis C virus RNA dependant polymerase (NS5B) (Hepatitis C virus genotype 1b, UniProt P26663) (assay: Inhibition of NS5B RNA dependent RNA polymerase activity). Settings: Table 1; HCV NS5B polymerase.
Type: biochemical
Method: A suitable assay is described in the examples.
Inhibition of NS5B RNA Dependent RNA Polymerase Activity
The compounds of the invention were tested for inhibitory activity against the hepatitis C virus RNA dependant polymerase (NS5B), according to protocol described in WO 03/010141

Chain of hepatitis C virus RNA dependant polymerase (NS5B) (P26663 2420-3010): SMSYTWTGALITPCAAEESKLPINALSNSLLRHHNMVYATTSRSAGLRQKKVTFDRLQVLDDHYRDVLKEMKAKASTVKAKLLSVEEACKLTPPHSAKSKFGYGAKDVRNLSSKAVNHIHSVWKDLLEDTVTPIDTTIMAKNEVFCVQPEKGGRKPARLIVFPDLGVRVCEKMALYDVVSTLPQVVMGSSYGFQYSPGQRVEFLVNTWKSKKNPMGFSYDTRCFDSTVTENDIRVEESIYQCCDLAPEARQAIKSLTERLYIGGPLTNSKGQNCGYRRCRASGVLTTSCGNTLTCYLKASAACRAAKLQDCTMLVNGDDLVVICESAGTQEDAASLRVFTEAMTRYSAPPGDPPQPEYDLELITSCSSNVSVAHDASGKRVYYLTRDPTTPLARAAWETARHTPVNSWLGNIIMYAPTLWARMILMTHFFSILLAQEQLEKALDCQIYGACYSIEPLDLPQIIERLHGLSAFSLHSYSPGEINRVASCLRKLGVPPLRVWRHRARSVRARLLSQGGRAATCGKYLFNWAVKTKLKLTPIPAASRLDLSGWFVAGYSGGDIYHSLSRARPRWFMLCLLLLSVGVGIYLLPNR

`CC(C)(NC(=O)Cn1c(-c2ccoc2)c(C2CCCCC2)c2ccc(C(=O)O)cc21)C(=O)Nc1ccc(/C=C/C(=O)O)cc1` [Example 1051] and `CC(C)(NC(=O)Cn1c(-c2ccoc2)c(C2CCCCC2)c2ccc(C(=O)O)cc21)C(=O)Nc1ccc(-c2nc(C(=O)O)cs2)cc1` [Example 1052] cannot be ordered by IC50: < 200 nM for the first, < 200 nM for the second.

`O=C(O)c1ccc2c(C3CCCCC3)c(-c3ccc(Br)cn3)n(CC(=O)N3CCC(C(=O)O)CC3)c2c1` [Example 1135] and `O=C(Cn1c(-c2ccc(Br)cn2)c(C2CCCCC2)c2ccc(C(=O)O)cc21)NNC(=O)NC[C@H]1CC[C@H](C(=O)O)CC1` [Example 1141] fall in the same range of IC50: 200 to 1000 nM for the first, 200 to 1000 nM for the second.

First: O=C(O)c1ccc2c(C3CCCCC3)c(-c3ccsc3)n(CC(=O)N3CCC(N4CCCC4)CC3)c2c1 [Example 1037]
Second: O=C(O)c1ccc2c(C3CCCCC3)c(-c3cc4ccccc4s3)n(CC(=O)N3CCC(N4CCCC4)CC3)c2c1 [Example 1049]
The IC50 of the first is lower: < 200 nM for the first, 200 to 1000 nM for the second.

First: O=C(Cn1c(-c2ccoc2)c(C2CCCCC2)c2ccc(C(=O)O)cc21)NCCCN1CCOCC1 [Example 1009]
Second: COCCN1CCN(C(=O)Cn2c(-c3ccoc3)c(C3CCCCC3)c3ccc(C(=O)O)cc32)CC1 [Example 1126]
The IC50 of the first is higher: 200 to 1000 nM for the first, < 200 nM for the second.

First: O=C(O)c1ccc2c(C3CCCCC3)c(-c3csc(N4CCCCC4)n3)n(CC(=O)N3CCOCC3)c2c1 [Example 1040]
Second: O=C(O)c1ccc2c(C3CCCCC3)c(-c3ccoc3)n(CC(=O)N3CCCC(C(=O)O)C3)c2c1 (stereo not shown) [Example 1099]
The IC50 of the first is higher: 200 to 1000 nM for the first, < 200 nM for the second.

First: CN(C)C1CCN(C(=O)Cn2c(-c3ccoc3)c(C3CCCCC3)c3ccc(C(=O)O)cc32)C1 (stereo not shown) [Example 1131]
Second: NC(=O)Cn1c(-c2ccoc2)c(C2CCCCC2)c2ccc(C(=O)O)cc21 [Example 1065]
The IC50 of the first is lower: < 200 nM for the first, 200 to 1000 nM for the second. The first is the more potent here.

`O=C(Cn1c(-c2ccoc2)c(C2CCCCC2)c2ccc(C(=O)O)cc21)NCc1ccco1` [Example 1056] and `CC(C)NC(=O)Cn1c(-c2ccoc2)c(C2CCCCC2)c2ccc(C(=O)O)cc21` [Example 1106] fall in the same range of IC50: 200 to 1000 nM for the first, 200 to 1000 nM for the second.

`CC(=O)NNC(=O)Cn1c(-c2ccoc2)c(C2CCCCC2)c2ccc(C(=O)O)cc21` [Example 1110] and `CN(CCO)C(=O)Cn1c(-c2ccoc2)c(C2CCCCC2)c2ccc(C(=O)O)cc21` [Example 1090] cannot be ordered by IC50: < 200 nM for the first, < 200 nM for the second.

First: CC(C)CN(C)C(=O)Cn1c(-c2ccoc2)c(C2CCCCC2)c2ccc(C(=O)O)cc21 [Example 1006]
Second: CCN(CC)CCN(CC)C(=O)Cn1c(-c2ccoc2)c(C2CCCCC2)c2ccc(C(=O)O)cc21 [Example 1007]
The IC50 of the first is higher: 200 to 1000 nM for the first, < 200 nM for the second. The second is the more potent here.

`Cn1c(C(=O)O)cc2cc(NC(=O)C(C)(C)NC(=O)Cn3c(-c4ccoc4)c(C4CCCCC4)c4ccc(C(=O)O)cc43)ccc21` [Example 1054] and `O=C(O)/C=C/c1ccc(NC(=O)C2(NC(=O)Cn3c(-c4ccoc4)c(C4CCCCC4)c4ccc(C(=O)O)cc43)CCNCC2)cc1` [Example 1080] cannot be ordered by IC50: < 200 nM for the first, < 200 nM for the second.

`O=C(Cn1c(-c2ccc(Br)cn2)c(C2CCCCC2)c2ccc(C(=O)O)cc21)N[C@@H](Cc1ccc(O)cc1)C(=O)O` [Example 1133] and `CC(C)NC(=O)Cn1c(-c2ccco2)c(C2CCCCC2)c2ccc(C(=O)O)cc21` [Example 1032] fall in the same range of IC50: 200 to 1000 nM for the first, 200 to 1000 nM for the second.

`CN(C)C(=O)Cn1c(-c2cccn2C)c(C2CCCCC2)c2ccc(C(=O)O)cc21` [Example 1039] showed an IC50 of 200 to 1000 nM.

Same assay, conditions: Table 2; HCV NS5B polymerase

`Cc1cc(C)c(S(=O)(=O)NC(=O)c2ccc3c(C4CCCCC4)c(-c4ccoc4)n(CC(=O)N4CCOCC4)c3c2)c(C)c1` [Example 2044] and `O=C(NS(=O)(=O)c1ccc(Cl)s1)c1ccc2c(C3CCCCC3)c(-c3ccoc3)n(CC(=O)N3CCOCC3)c2c1` [Example 2004] cannot be ordered by IC50: < 200 nM for the first, < 200 nM for the second.

`O=C(NS(=O)(=O)c1cccc(Cl)c1)c1ccc2c(C3CCCCC3)c(-c3ccoc3)n(CC(=O)N3CCOCC3)c2c1` [Example 2010] and `COc1ccc(S(=O)(=O)NC(=O)c2ccc3c(C4CCCCC4)c(-c4ccoc4)n(CC(=O)N4CCOCC4)c3c2)cc1` [Example 2009] cannot be ordered by IC50: < 200 nM for the first, < 200 nM for the second.

`CC(C)(C)c1ccc(S(=O)(=O)NC(=O)c2ccc3c(C4CCCCC4)c(-c4ccoc4)n(CC(=O)N4CCOCC4)c3c2)cc1` [Example 2025] and `Cc1c(S(=O)(=O)NC(=O)c2ccc3c(C4CCCCC4)c(-c4ccoc4)n(CC(=O)N4CCOCC4)c3c2)sc2ccc(F)cc12` [Example 2020] cannot be ordered by IC50: < 200 nM for the first, < 200 nM for the second.

`CN(C(=O)c1ccc2c(C3CCCCC3)c(-c3ccoc3)n(CC(=O)N3CCOCC3)c2c1)S(=O)(=O)c1ccccc1` [Example 2023] was tested, and the IC50 was 1000 to 10000 nM.

Same assay, conditions: Table 3; HCV NS5B polymerase

`O=C(O)/C=C/c1ccc(NC(=O)C2(NC(=O)c3ccc4c(C5CCCCC5)c(-c5ccccn5)n(CC(=O)N5CCCCC5)c4c3)CCC2)cc1` [Example 3009] and `O=C(O)C=Cc1ccc(NC(=O)C2(NC(=O)c3ccc4c(C5CCCC5)c(-c5ccccn5)n(CC(=O)N5CCCCC5)c4c3)CCC2)cc1` [Example 3011] cannot be ordered by IC50: < 200 nM for the first, < 200 nM for the second.

Same assay, conditions: Table 4; class ranges

First: Cc1nc(C2(NC(=O)c3ccc4c(C5CCCCC5)c(-c5ccoc5)n(CC(=O)N5CCOCC5)c4c3)CCC2)cs1 [Example 4098]
Second: NC(=O)C1(NC(=O)c2ccc3c(C4CCCCC4)c(-c4ccoc4)n(CC(=O)N4CCOCC4)c3c2)CCC1 [Example 4092]
The IC50 of the first is higher: 200 to 1000 nM for the first, < 200 nM for the second.

First: C[C@@H](NC(=O)c1ccc2c(C3CCCCC3)c(-c3ccoc3)n(CC(=O)N3CCOCC3)c2c1)c1ccccc1 [Example 4007]
Second: O=C(NC(=O)c1ccc2c(C3CCCCC3)c(-c3ccoc3)n(CC(=O)N3CCOCC3)c2c1)c1ccccc1 [Example 4065]
The IC50 of the first is lower: 200 to 1000 nM for the first, 1000 to 10000 nM for the second.

`Cc1c(C2(NC(=O)c3ccc4c(C5CCCCC5)c(-c5ccoc5)n(CC(=O)N5CCOCC5)c4c3)CCC2)oc2ccc(C(=O)O)cc12` [Example 4088] and `Cn1c(C2(NC(=O)c3ccc4c(C5CCCCC5)c(-c5ccoc5)n(CC(=O)N5CCOCC5)c4c3)CCC2)nc2ccc(C=CC(=O)O)cc21` [Example 4082] cannot be ordered by IC50: < 200 nM for the first, < 200 nM for the second.

First: CNC(=O)C1(NC(=O)c2ccc3c(C4CCCCC4)c(-c4ccoc4)n(CC(=O)N4CCOCC4)c3c2)CCCC1 [Example 4096]
Second: COC(=O)C1(NC(=O)c2ccc3c(C4CCCCC4)c(-c4ccoc4)n(CC(=O)N4CCOCC4)c3c2)CCCC1 [Example 4073]
The IC50 of the first is lower: < 200 nM for the first, 200 to 1000 nM for the second. The first is the more potent here.

`CNC(=O)C(C)(C)NC(=O)c1ccc2c(C3CCCCC3)c(-c3ccoc3)n(CC(=O)N3CCC(N4CCCC4)CC3)c2c1` [Example 4084] and `CN(C)C(=O)C(C)(C)NC(=O)c1ccc2c(C3CCCCC3)c(-c3ccoc3)n(CC(=O)N3CCC(N4CCCC4)CC3)c2c1` [Example 4086] cannot be ordered by IC50: < 200 nM for the first, < 200 nM for the second.

Compared with `CN1CCN(C(=O)Cn2c(-c3ccoc3)c(C3CCCCC3)c3ccc(C(=O)NCCc4ccncc4)cc32)CC1` [Example 4035], `COc1cc(CNC(=O)c2ccc3c(C4CCCCC4)c(-c4ccoc4)n(CC(=O)N4CCN(C)CC4)c3c2)ccc1O` [Example 4030] is lower in IC50: 200 to 1000 nM for the first, < 200 nM for the second. The second is the more potent here.

`CN1CCN(C(=O)Cn2c(-c3ccoc3)c(C3CCCCC3)c3ccc(C(=O)NC4CC4c4ccccc4)cc32)CC1` (racemic) [Example 4038] and `CN1CCN(C(=O)Cn2c(-c3ccoc3)c(C3CCCCC3)c3ccc(C(=O)NC4(CO)CCCC4)cc32)CC1` [Example 4027] fall in the same range of IC50: 200 to 1000 nM for the first, 200 to 1000 nM for the second.

First: CN(C)C(=O)Cn1c(-c2ccoc2)c(C2CCCCC2)c2ccc(C(=O)NCc3ccccc3)cc21 [Example 4054]
Second: CN(C)C(=O)C1(NC(=O)c2ccc3c(C4CCCCC4)c(-c4ccoc4)n(CC(=O)N4CCOCC4)c3c2)CCCC1 [Example 4097]
The IC50 of the first is higher: 200 to 1000 nM for the first, < 200 nM for the second. The second is the more potent here.

`COc1ccc(CNC(=O)c2ccc3c(C4CCCCC4)c(-c4ccccn4)n(CC(=O)N4CCN(C)CC4)c3c2)cc1OC` [Example 4002] was tested, and the IC50 was 200 to 1000 nM.

Same assay, conditions: Table 5; HCV NS5B polymerase

For `CC(C(=O)N1CCOCC1)n1c(-c2ccoc2)c(C2CCCCC2)c2ccc(C(=O)O)cc21` (stereo not shown) [Example 5008], the IC50 was 1000 to 10000 nM.

Same assay, conditions: Table 6; HCV NS5B polymerase

First: CN(C)C(=O)Cn1c(-c2ccoc2)c(C2CCCCC2)c2cc(C(=O)O)ccc21 [Example 6003]
Second: O=C(O)c1ccc2c(c1)c(C1CCCCC1)c(-c1ccoc1)n2CC(=O)N1CCC(N2CCCC2)CC1 [Example 6002]
The IC50 of the first is higher: 200 to 1000 nM for the first, < 200 nM for the second. The second is the more potent here.

Same assay, conditions: Table 7; class ranges

`O=C(NC(Cc1ccccc1)c1ccccc1)c1ccc2c(c1)c(C1CCCCC1)c(-c1ccoc1)n2CC(=O)N1CCC(N2CCCC2)CC1` (stereo not shown) [Example 7025] and `CC(NC(=O)c1ccc2c(c1)c(C1CCCCC1)c(-c1ccoc1)n2CC(=O)N1CCC(N2CCCC2)CC1)c1ccccc1` (stereo not shown) [Example 7026] fall in the same range of IC50: 1000 to 10000 nM for the first, 1000 to 10000 nM for the second.

`O=C(NCc1ccc(F)c(C(F)(F)F)c1)c1ccc2c(c1)c(C1CCCCC1)c(-c1ccoc1)n2CC(=O)N1CCC(N2CCCC2)CC1` [Example 7042] and `O=C(O)c1ccc(CNC(=O)c2ccc3c(c2)c(C2CCCCC2)c(-c2ccoc2)n3CC(=O)N2CCC(N3CCCC3)CC2)cc1` [Example 7045] fall in the same range of IC50: 1000 to 10000 nM for the first, 1000 to 10000 nM for the second.

`NC(=O)c1ccc2c(c1)c(C1CCCCC1)c(-c1ccoc1)n2CC(=O)N1CCC(N2CCCC2)CC1` [Example 7058] and `CC(C)CC(NC(=O)c1ccc2c(c1)c(C1CCCCC1)c(-c1ccoc1)n2CC(=O)N1CCC(N2CCCC2)CC1)C(N)=O` (stereo not shown) [Example 7046] fall in the same range of IC50: 1000 to 10000 nM for the first, 1000 to 10000 nM for the second.

`O=C(Nc1ccccc1)c1ccc2c(c1)c(C1CCCCC1)c(-c1ccoc1)n2CC(=O)N1CCC(N2CCCC2)CC1` [Example 7023] and `O=C(NC1CCN(Cc2ccccc2)C1)c1ccc2c(c1)c(C1CCCCC1)c(-c1ccoc1)n2CC(=O)N1CCC(N2CCCC2)CC1` (stereo not shown) [Example 7040] fall in the same range of IC50: 1000 to 10000 nM for the first, 1000 to 10000 nM for the second.

`O=C(NCCN1CCNC1=O)c1ccc2c(c1)c(C1CCCCC1)c(-c1ccoc1)n2CC(=O)N1CCC(N2CCCC2)CC1` [Example 7044] and `O=C(NCc1cccnc1)c1ccc2c(c1)c(C1CCCCC1)c(-c1ccoc1)n2CC(=O)N1CCC(N2CCCC2)CC1` [Example 7021] fall in the same range of IC50: 1000 to 10000 nM for the first, 1000 to 10000 nM for the second.

First: Cc1c(C(=O)O)ccc2c(C3CCCCC3)c(-c3ccoc3)n(CC(=O)N3CCOCC3)c12 [Example 7005]
Second: CN(CCc1ccccn1)C(=O)c1ccc2c(c1)c(C1CCCCC1)c(-c1ccoc1)n2CC(=O)N1CCC(N2CCCC2)CC1 [Example 7020]
The IC50 of the first is lower: < 200 nM for the first, 1000 to 10000 nM for the second. The first is the more potent here.

Source: patent publication US7888363B2, “Viral polymerase inhibitors” (Boehringer Ingelheim International GmbH, priority 2003, dated 2011)
